Here are results for five molecules from patent US20120264231A1, “ASSAY FOR ORAI CALCIUM CHANNEL REGULATORS” (IMMUNE DISEASE INSTITUTE, INC., priority 2009, published 2012).

One experiment has as its system STIM1−/− T cells. Nature of the experiment: Single-cell [Ca2+]i measurement in STIM1−/− T cells expressing STIM1 fragments. The experiment is classed as cell-based, murine. From the text:
To determine the competence of STIM 1 fragments to activate ORAI1 in mammalian cells, Myc-tagged STIM 1^CT and its truncated variants were introduced by retroviral expression into STIM1−/− T cells, and their ability to elevate resting Ca^2+ permeability was examined in cells loaded with Fura-2. As in human Jurkat T cells (Huang, G. N., et al., (2006); supra), expression of the soluble cytoplasmic portion of STIM 1 activated Ca^2+ influx into STIM1−/− murine T cells (FIG. 11). Elevated Ca^2+ permeability was evident in a marked increase in cytoplasmic [Ca^2+] on changing to medium containing 2 mM Ca^2+ after brief exposure to nominally Ca^2+-free medium. […] Retroviral vector alone conferred no constitutive influx above the level in control cells, as previously shown (Oh-hora, M., et al., (2008), supra).
Retroviral expression plasmids encoding mouse STIM 1 and its cytoplasmic fragments (residues 233-685, 233-600, 233-498, or 233-463) were constructed by inserting the corresponding coding sequences between the XhoI and EcoRI sites of the vector pMSCV-CITE-eGFP-PGK-Puro (Clontech), which allows for coexpression of the inserted gene, GFP, and a puromycin resistance gene. GFP expression was used to estimate transducing efficiency.
Primary CD4^+ cells were purified from spleen and lymph nodes of Stim1^f1/f1 CD4-Cre^+ mice using Dynal magnetic beads (Invitrogen) following the manufacturer's instructions. Purified T cells were stimulated with anti-CD3 and anti-CD28, transduced with retroviruses obtained from transfected Phoenix packaging cells, and further expanded in IL-2-containing medium as described (Oh-hora, M., et al., Nat Immunol 9, 432-443 (2008); Ansel, K. M., et al., Nat Immunol 5, 1251-1259 (2004)). The transduction efficiency (>80%) was estimated by evaluating GFP expression using flow cytometry.
Retrovirus-transduced CD4^+ cells isolated from Stim1^f1/f1 CD4-Cre^+ mice were incubated overnight in IL-2 free RPMI medium and loaded with 2 μM Fura-2-acetoxylmethyl ester (Invitrogen) for 45 min at ambient temperature in the dark. T cells were further attached to coverslips precoated with 0.01% poly-L-lysine, mounted to a RC-20 closed-bath flow chamber (Warner Instrument), and bathed in Ringer's solution (155 mM NaCl, 4.5 mM KCl, 2 mM CaCl2, 1 mM MgCl2, 10 mM D-glucose and 5 mM HEPES, pH 7.4). For nominally Ca^2+-free Ringer's solution CaCl2 was replaced with MgCl2. After 5 minutes of equilibration in Ringer's solution, [Ca^2+]i measurement commenced with ˜3 min perfusion of T cells with Ca^2+-free Ringer's solution at ambient temperature, followed by perfusion of Ringer's solution containing 2 mM CaCl2. The cycle was repeated once with final addition of Ringer's solution supplemented with 2 μM LaCl3 to block Ca^2+ flux. Images were acquired using a Zeiss Axiovert S200 epifluorescence microscope and OpenLab imaging analysis software (Improvision). The fluorescence data (F340 nm/F380 nm) were collected every 4 s and analyzed as described (Oh-hora, M., et al., (2008), supra; Feske, S., et al., Nature 441, 179-185 (2006)). In each experiment, for each experimental condition, 50-100 GFP-positive CD4+ T cells were analyzed.

Another experiment has as its target ORAI1 (E106Q) (Homo sapiens, UniProt Q96D31, E106Q). Nature of the experiment: Tb3+ luminescence resonance energy transfer, lanthanide binding to ORAI1. Also noted: Human ORAI1 (65-301) with an N-terminal FLAG tag was subcloned into the pPIC3.5K vector; made in house; host or cells: Pichia pastoris (membranes). How it is done:
Tb3+ luminescence resonance energy transfer (Tb3+-LRET) experiments were performed on a FluoroLog®-3 spectrofluorometer (HORIBA Scientific) with a 1-cm lengthpath cuvette at ambient temperature. Emission spectra were collected from 500 to 600 nm with the excitation set at 282 nm, or at 295 nm to minimize the contribution from tyrosine. The slit widths for excitation and emission were set at 4 nm and 8 nm, respectively. A glass filter with cutoff of ˜320 nm was used to circumvent light scattering. […] Spectra from membranes lacking ORAI1, with the same total membrane protein content, served as negative control.
In each case, a scan of luminescence emission from membrane suspension alone was obtained, then Tb3+ was added into the cuvette and a second scan was performed (FIG. 12). Protein content of the two samples was the same. The presence of equivalent amounts of membrane microsomes was also evidenced by identical light scattering in the two cases prior to addition of Tb3+. Characteristic Tb3+ emission peaks at 547 nm and 589 nm were prominent in the ORAI sample, attributable to energy transfer from one or more of the native tryptophan residues of the protein.

The target of a further experiment is human ORAI3 (Homo sapiens, UniProt Q9BRQ5). The conditions noted are these: for ^45Ca^2+ uptake (cpm): 75 μM 2-APB. The procedure:
(§1) Human ORAI3 was expressed in P. pastoris as described below. Then ^45Ca^2+ uptake was measured in a suspension of P. pastoris cells expressing ORAI3, after addition of 2-aminoethoxydiphenyl borate (2-APB), a compound known to activate ORAI3 expressed in mammalian cells.
Individual colonies were picked, and ORAI3 protein expression was induced by growth for eight hours in MMY medium (containing 0.5% methanol), whose formulation is given below. Cells were collected by centrifugation, and disrupted by vortexing in an Eppendorf tube with 0.5 mm glass beads. Beads, unbroken cells, and debris were removed by centrifugation at 5000 rpm in a benchtop centrifuge. The supernatant from that centrifugation was centrifuged at 100,000×g to pellet cell membranes. Cell membranes were resuspended, protein concentrations determined by Lowry or Bradford assay, and an equal amount of protein from each sample subjected to SDS-polyacrylamide gel electrophoresis and western blotting. The relative levels of Myc-ORAI3 expressed by individual colonies were compared by western blotting with antibody to the Myc tag. Colonies expressing relatively high levels of ORAI3 protein were used for the ^45Ca^2+ uptake assay.
(§2) • Streaked out Pichia glycerol stock on RDB-plate • Grew 2-5 days at 30° C. (until colonies are large enough to easily remove) Seeded 5 mL MGY medium with 1 colony • Grew 2 days in 50 mL Falcon tube (cap partially unscrewed but taped on to allow aeration), 250 rpm, 30° C. • Seeded 50 mL MGY with the 5 mL culture (use a yeast-specific baffled flask; if scaled up, the volume of the culture was 1/10th the volume of the flask) • Grew o/n, 30° C., 250 rpm • At OD ˜2-3, spun down, checked OD and resuspended in MMY at an approximate OD of 6 (i.e., 6×5E7 cells/mL) • Grew 4 h at 28.5° C., 250 rpm, 28.5° C., with the top of the flask covered in gauze (not foil or a lid—a lot of aeration needed for induction. The temperature was under 30° C.) • Measured OD • Washed 3×25 mL in Solution A • Resuspended in Solution A for a final OD of 2 (1×10^8 cells/mL)
• (Prepared everything else: 1 μCi/μL ^45CaCl2, 1 mL Solution S aliquots in tubes that can hold at least 2 mL, tips, etc.) • Spun sample (either 1 mL or the multiple-mL timepoint aliquot) down at 2000×g and resuspended in an equal volume of Solution C • (where applicable, added 2-APB or other things such as Solution S or lanthanum here. 75 μM 2-APB with Orai3.) • Added 1 μCi ^45CaCl2/Ml • Incubated as appropriate • When timepoint was taken, 1 mL sample (gently pipetted up and down, since Pichia settle) and added to 1 mL Solution S • Collected all samples • (This was repeated for each sample.) Presoaked 2.5 cm Whatman GF/F filter in place on the filter apparatus with 1 mL Solution S • Added the 2 mL sample/Solution S mix to the column • Turned on the vacuum and wash 3×15 mL with Solution W • Let filter dry under vacuum & removed to scintillation vial • Placed filter flat on the bottom of the vial, yeast-side up • Carefully added scintillation fluid • Counted in scintillation counter (^45Ca settings, if possible: window is 0-750, quench curve calibrations)

Experiment [1] relates to P pastoris cells that were not engineered to express ORAI3. How it is done: as §1
as §2, with “(1×10^8 cells/mL) […]” for “(1×10^8 cells/mL)”

The target in experiment [2] is endogenous CRAC channels (ORAI1) of STIM1-/- murine T cells (mouse) (UniProt Q8BWG9). The experiment can be described thus: cell-based or functional assay.

Like-named read-outs stand apart in the source and are kept apart here.

Sequence of ORAI1 (E106Q) (Q96D31 65-301 E106Q): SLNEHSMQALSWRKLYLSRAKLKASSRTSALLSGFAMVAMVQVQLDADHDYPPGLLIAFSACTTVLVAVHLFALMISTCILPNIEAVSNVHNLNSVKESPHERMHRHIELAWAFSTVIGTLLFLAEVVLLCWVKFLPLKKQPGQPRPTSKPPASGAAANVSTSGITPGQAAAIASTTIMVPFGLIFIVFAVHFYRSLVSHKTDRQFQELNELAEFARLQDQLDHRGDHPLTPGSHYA
Sequence of endogenous CRAC channels (ORAI1) of STIM1-/- murine T cells (mouse) (Q8BWG9 whole entry): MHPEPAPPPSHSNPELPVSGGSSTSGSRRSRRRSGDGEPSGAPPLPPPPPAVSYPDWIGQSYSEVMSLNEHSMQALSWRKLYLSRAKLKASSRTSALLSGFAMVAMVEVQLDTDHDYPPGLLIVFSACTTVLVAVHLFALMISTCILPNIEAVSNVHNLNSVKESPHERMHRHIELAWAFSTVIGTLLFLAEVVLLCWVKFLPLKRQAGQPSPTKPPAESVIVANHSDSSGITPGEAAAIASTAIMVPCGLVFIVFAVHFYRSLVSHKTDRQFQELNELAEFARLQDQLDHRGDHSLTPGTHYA

Take `[Cl][La]([Cl])[Cl]` [La^3+, LaCl3, reference compound]: the “cytoplasmic [Ca^2+] upon exposure to La^3+” value in the experiment with STIM1−/− T cells (2 μM LaCl3, continuing presence of external Ca^2+) is given as “rapid decline”.

As for `[Tb+3]` [Tb3+], at ORAI1 (E106Q) (Pichia membranes containing ORAI1 (E106Q), Tb3+ 10-50 μM), the “Tb3+ emission peaks at 547 nm and 589 nm” value is listed as “prominent”. For the same molecule, the “Tb3+-LRET signal” value at ORAI1 (E106Q) (solubilized ORAI1) is listed as “specific Tb3+-LRET signal”.

Regarding `NCCOB(c1ccccc1)c1ccccc1` [2-APB, 2-aminoethoxydiphenyl borate], the “rate and extent of ^45Ca^2+ uptake” value at human ORAI3 (75 μM 2-APB versus control suspensions without 2-APB) is “increased”. Further, the “^45Ca^2+ uptake (cpm)” value at human ORAI3 (0.5 min) came to 2729.9 cpm; on human ORAI3 (1 min), 3137.3 cpm; on human ORAI3 (2 min) it was 4662.1 cpm; on human ORAI3 (4 min), 6019.2 cpm; at human ORAI3 (~0.25 min), 1913.5 cpm. Moreover, in experiment [1], the “effect on ^45Ca^2+ uptake” value was “did not have this effect”.

As to “Myc-tagged STIM1^CT (mouse STIM1 233-685) expressed by retrovirus in STIM1-/- T cells (from UniProt P70302 233-685)”, the steepest rise of cytoplasmic [Ca^2+] (Fura-2, single cells) in experiment [2] was determined as 15 nM/s.

As to “STIM1 (233-600): truncated mouse STIM1 cytoplasmic fragment, residues 233-600”, in the experiment with STIM1−/− T cells (compared with STIM1^CT), the “maximum levels of cytoplasmic Ca^2+” value is “somewhat less than with STIM1^CT” and the “rate of rise of cytoplasmic Ca^2+” value is reported as “nearly comparable to the rate with STIM 1^CT”. Also, the “constitutive Ca^2+ influx” value in the experiment with STIM1−/− T cells (retroviral expression, Fura-2) was “activated a prominent constitutive Ca^2+ influx”.
